Patent US8822698B2, “Aminoacid derivatives, their process of preparation and their therapeutical uses as inhibitors of oncogenic signals by the Met family” (Universite D'Aix-Marseille, priority 2009, dated 2014)
pIC50: −log10 of the molar value.

Assays:
[1] = test system: Met-triggered cell scattering, MDCK cells; experiment: HGF-induced MDCK cell scattering assay; type: cell-based; conditions: Canis lupus familiaris; MDCK cells, 20 ng/ml HGF; read-out: IC50 scattering inhibition
Description: (§1) MDCK cells were grown in Dulbecco's modified Eagle's medium (DMEM) (Gibco BRL) containing 4 mM L-glutamine and supplemented with 2% (v/v) foetal bovine serum (Gibco BRL), 100 U/mL penicillin, and 100 μg/mL streptomycin. Cells were plated at a density of 1000 cells per well in 24-well microplates and allowed to settle overnight at 37° C. in a humidified atmosphere of 5% CO2 prior to treatments. MCF10A human breast cells, MDA-MB231 human breast cancer cells, GTL-16 human gastric carcinoma cells, HepG2 human hepatocellular carcinoma cells, U-87 human glioblastoma-astrocytoma cells and LLC Lewis lung carcinoma cells were grown in RPMI medium (Gibco BRL) containing 4 mM L-glutamine and supplemented with 2% (v/v) foetal bovine serum (Gibco BRL), 100 U/mL penicillin, and 100 μg/mL streptomycin and kept at 37° C. in a humidified atmosphere of 5% CO2.
(§2) For scattering assays, MDCK cells were pre-incubated with compounds for 2 hours at 0.1-100 μM concentrations at 37° C. in a humidified atmosphere of 5% CO2, followed by 24 hr stimulation with 20 ng/ml HGF (R&D Systems), as previously described (Patane et al., Biochem Biophys Res Commun 375, 184-189, 2008). The cells were further incubated at 37° C. in an atmosphere of 5% CO2 for 24-48 hours, washed with phosphate-buffered saline (PBS; Gibco BRL), and fixed in PFA (Sigma). The quantification of scattering response was performed by counting the number of cells with scattered morphology in 30 independent colonies. The […] corresponds to the concentration of compounds leading to a 50% inhibition of Met-triggered cell scattering. Active compounds were assayed to impair scattering response also on human breast MCF10A cells following the same procedure. For survival assays, GTL-16, HepG2 and U-87 cells were cultured in serum-free media for 24 hours prior to compound addition for 48 hours. Viability was assessed with the Cell Titer Glo Luminescent Assay (Promega). For in vitro tumorigenesis, soft agar growth assays were preformed using GTL-16, HepG2, and U-87 cells, as previously described (Patane et al., Cancer Res 66, 4750-4757, 2006).
Compounds were first submitted to a biological screening of cell motility, namely scattering response. MDCK epithelial cells acquire a “scattered phenotype” following stimulation by the Met ligand, HGF (Chan et al., J Biomol Screen. 13, 847-854, 2008; Corso et al., Trends Mol Med 11, 284-292, 2005; Patane et al., Biochem Biophys Res Commun 375, 184-189, 2008), allowing direct evaluation of compounds on Met functions. The Met inhibitor […] was used as control in all assays (Schiering et al., Proc Natl Acad Sci USA 100, 12654-12659, 2003).

[2] = test system: GTL-16 cells; experiment: In vivo tumorigenesis, GTL-16 cells injected intra-peritoneally in nude mice
Description: Xenografts of GTL-16 cells were established by intraperitoneal (i.p.) or subcutaneously (into the flank/leg region) injection of cells (10^6) in nude mice (S/SOPF SWISS NU/NU; Charles River). Mice were then treated with the compound of example 4 (i.p. 30 mg kg-1) or vehicle every two days (GTL-16 cell intra-peritoneally injected at d=0, treatment started at d=1) or every day (GTL-16 cell intra-peritoneally injected at d=0, treatment started at d=7; GTL-16 cell subcutaneously injected at d=0, treatment started at d=1). Treatments were performed either one day or seven days after cancer cell injection. Mice were then sacrificed, and tumor nodule numbers present in the peritoneal cavity, the measure of their diameter and their total weight was evaluated. Three independent tumorigenesis assays were performed (8 mice per group were used).
We evaluated the ability of compounds of general formula to impair tumour growth in vivo using nude mice injected intra-peritoneally with GTL-16 cells. […] For example, when compounds were administered one day after intraperitoneally injection of GTL-16 cells, the mean numbers of nodules were the following: a) mice trated with vehicle: <1 mm: 3; 1-2 mm: 9.3; 2-5 mm: 11; >5 mm: 3.5. b) mice treated with the compound of example 4: <1 mm: 0.3; 1-2 mm: 1.3; 2-5 mm: 1; >5 mm: 0.8 (FIG. 3). […] Moreover, tumour growth of GTL-16 cells subcutaneously injected was reduced by approximately 35% in mice treated with compounds (data not shown). Taken together, these findings provide evidence that the identified new scaffold interferes with tumour growth in vivo.

[3] = test system: HepG2 cells; experiment: Soft agar anchorage-independent growth (in vitro tumorigenesis), HepG2; type: cell-based; conditions: Homo sapiens, read-out: HepG2 IC 50
Description: as §1
For scattering assays, MDCK cells were pre-incubated with compounds for 2 hours at 0.1-100 μM concentrations at 37° C. in a humidified atmosphere of 5% CO2, followed by 24 hr stimulation with 20 ng/ml HGF (R&D Systems), as previously described (Patane et al., Biochem Biophys Res Commun 375, 184-189, 2008). […] The quantification of scattering response was performed by counting the number of cells with scattered morphology in 30 independent colonies. […] Viability was assessed with the Cell Titer Glo Luminescent Assay (Promega). […]

[4] = test system: MDCK cells; experiment: Toxicity observed in the cell scattering screening; type: cell-based
Description: as §2
Compounds of examples 1 (XIII), 2 (XIV), 4 (XVI), 5 (XVII), and 6 (XVIII) in particular elicit inhibitory activity on Met-triggered cell scattering. […] The SU11274 (Met inhibitor; Sugen) was used as reference compound. […] These findings were further supported by analysing the inhibitory activity of compounds on breast cells. […] Altogether, these studies identify a new class of compounds of general formula (I), which are able to interfere with Met-triggered cell scattering.

[5] = test system: Met phosphorylation, HepG2 cells; experiment: Met phosphorylation upon HGF stimulation in HepG2 cells; type: cell-based, human
Description: After starvation, cells were pretreated with inhibitors, then stimulated with HGF, and total extracts were analyzed as described (Maina et al., Mol Cell 7, 1293-1306, 2001). Antibodies used were anti-tubulin (Sigma), anti-phospho Y1234-1235-Met, anti-Akt, anti-phospho-Akt, anti-phospho-Gab1, anti phosphor-ErbBs, anti-phospho-PDGFR, anti-PDGFRs, anti-ERKs (Cell Signaling), anti-ErbBs, anti-Met (Santa Cruz).
Activation of Met by HGF can be biochemically evaluated by following its phosphorylation levels and activation of downstream targets. We started to biochemically characterise the inhibitory properties of identified compounds by following Met phosphorylation and its downstream targets in HepG2 cells. […] These findings were further supported using other cell lines, such as MDA-MB231 human breast cancer cells (FIG. 2).

[6] = i.p. 30 mg kg-1, treatment one day after i.p. injection of GTL-16 cells
[7] = nude mice injected i.p. with GTL-16 cells

Compound: O=C(Cc1cc(C(F)(F)F)cc(C(F)(F)F)c1)N[C@@H](Cc1ccccc1)C(=O)Nc1ccc(-c2cn3c(n2)sc2ccccc23)cc1 [Example 4, (S)-2-(3,5-bis(trifluoromethyl)phenylacetamido)-3-phenyl-N-[4-(imidazo[2,1-b]benzothiazol-2-yl)phenyl]propanamide]
- pIC50 [1]: 6.77
- mean number of nodules 1-2 mm [2, 6]: 1.3
- mean number of nodules 2-5 mm [2, 6]: 1
- mean number of nodules <1 mm [2, 6]: 0.3
- mean number of nodules >5 mm [2, 6]: 0.8
- number of tumours [2, 7]: drastically reduced
- total weight of tumours [2, 7]: drastically reduced
- pIC50 [3]: 6.49
- Concentration at which toxicity was or was not observed [4]: 100 µM
- Toxicity ([4]; Table 1, scattering screening): >50 µM
- Met phosphorylation [5]: significantly reduced
